Assay results from US20060235076A1, “Medicinal composition for treating infection with drug-resistant staphylococcus aureus” (priority 2003, published 2006).
In brackets after ≈: the same amount, converted by molar mass. Where two headings read alike, the source gives them in different places.

Tests used:
Format in all cases: cell-based, Staphylococcus aureus
MRSA and MSSA [1] = test: Antibacterial activity of gallic acid, various gallates and multivalent phenol derivatives alone (agar plate dilution method, MIC); conditions: Staphylococcus aureus
Method in brief: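 Agar plate dilution MIC per Japan Society of Chemotherapy, on Mueller-Hinton II agar supplemented with 50 mg/l Ca-ion, 25 mg/l Mg-ion and 2% NaCl. Inoculum grown overnight at 37 °C and diluted in saline to 10^6 CFU/ml. Compounds tested alone.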

[2] = test system: MRSA COL and MRSA Strain No. 5; test: Potentiating effect of various gallates for antibacterial activity of oxacillin (MIC by broth microdilution method and FIC); conditions: for FIC value: combination with oxacillin
Method in brief: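 Broth microdilution MIC per Japan Society of Chemotherapy method in cation-adjusted Mueller-Hinton broth (50 mg/l Ca, 25 mg/l Mg, 2% NaCl); inoculum 5×10^5 CFU/well from overnight 37° C culture. Gallate–oxacillin combinations evaluated by FIC.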

MRSA and MSSA [3] = test: Enhancing activity for the antibacterial activity of oxacillin by various gallates (agar plate dilution method, oxacillin MIC); conditions: MRSA and MSSA
Experimental: (§1) According to the agar plate dilution method defined by Japan Society of Chemotherapy, MIC (Minimum inhibitory concentration) was determined. CAMHA was prepared by adding 50 mg/l of Ca-ion, 25 mg/l of Mg-ion, and 2% of NaCl to Mueller-Hinton II Agar (MHA), and it was used as a medium for use in the measurement of sensitivity. The bacterial liquid was incubated at 37° C. overnight and diluted to 10^6 CFU/ml with saline.

MRSA = test: Potentiating effect of isoamyl gallate for the antibacterial activity of other β-lactams (agar plate dilution method, MIC)
Experimental: as §1

[4] = COL, compound alone, read-out: MIC
[5] = MRSA #1, compound alone, read-out: MIC
[6] = MRSA #2, compound alone, read-out: MIC
[7] = MRSA #3, compound alone, read-out: MIC
[8] = MRSA #4, compound alone, read-out: MIC
[9] = MRSA #5, compound alone, read-out: MIC
[10] = MRSA #6, compound alone, read-out: MIC
[11] = MRSA #7, compound alone, read-out: MIC
[12] = MRSA #8, compound alone, read-out: MIC
[13] = MRSA #9, compound alone, read-out: MIC
[14] = MRSA #10, compound alone, read-out: MIC
[15] = MRSA #12, compound alone, read-out: MIC
[16] = MRSA #16, compound alone, read-out: MIC
[17] = MRSA #17, compound alone, read-out: MIC
[18] = MRSA #18, compound alone, read-out: MIC
[19] = MRSA #20, compound alone, read-out: MIC
[20] = MRSA #21, compound alone, read-out: MIC
[21] = MRSA #22, compound alone, read-out: MIC
[22] = MRSA #24, compound alone, read-out: MIC
[23] = MSSA #1003, compound alone, read-out: MIC
[24] = MSSA #1010, compound alone, read-out: MIC
[25] = MSSA #1020, compound alone, read-out: MIC
[26] = MSSA #1023, compound alone, read-out: MIC
[27] = MSSA #1029, compound alone, read-out: MIC
[28] = MSSA #1032, compound alone, read-out: MIC
[29] = RN4220, with isoamyl gallate 25 mg/ml

| SMILES | MIC50 (MRSA and MSSA [1]) [µg/mL] | MIC (MRSA and MSSA [1]; ATCC 6538 / MRSA / MSSA) [µg/mL] | MIC (MRSA and MSSA [1]; [4]) [µg/mL] | MIC (MRSA and MSSA [1]; [5]) [µg/mL] | MIC (MRSA and MSSA [1]; [6]) [µg/mL] | MIC (MRSA and MSSA [1]; [7]) [µg/mL] | MIC (MRSA and MSSA [1]; [8]) [µg/mL] | MIC (MRSA and MSSA [1]; [9]) [µg/mL] | MIC (MRSA and MSSA [1]; [10]) [µg/mL] | MIC (MRSA and MSSA [1]; [11]) [µg/mL] | MIC (MRSA and MSSA [1]; [12]) [µg/mL] | MIC (MRSA and MSSA [1]; [13]) [µg/mL] | MIC (MRSA and MSSA [1]; [14]) [µg/mL] | MIC (MRSA and MSSA [1]; [15]) [µg/mL] | MIC (MRSA and MSSA [1]; [16]) [µg/mL] | MIC (MRSA and MSSA [1]; [17]) [µg/mL] | MIC (MRSA and MSSA [1]; [18]) [µg/mL] | MIC (MRSA and MSSA [1]; [19]) [µg/mL] | MIC (MRSA and MSSA [1]; [20]) [µg/mL] | MIC (MRSA and MSSA [1]; [21]) [µg/mL] | also measured |
| --- | --- | --- | --- | --- | --- | --- | --- | --- | --- | --- | --- | --- | --- | --- | --- | --- | --- | --- | --- | --- | --- |
| CC(C)CCOC(=O)c1cc(O)c(O)c(O)c1 [isoAmyl gallate, Isoamyl gallate] | 62.5 (≈ 260 µM) | 62.5 (≈ 260 µM) | 62.5 (≈ 260 µM) | 62.5 (≈ 260 µM) | 62.5 (≈ 260 µM) | 62.5 (≈ 260 µM) | 62.5 (≈ 260 µM) | 62.5 (≈ 260 µM) | 62.5 (≈ 260 µM) | 62.5 (≈ 260 µM) | 62.5 (≈ 260 µM) | 62.5 (≈ 260 µM) | 31.3 (≈ 130 µM) | 62.5 (≈ 260 µM) | 62.5 (≈ 260 µM) | 62.5 (≈ 260 µM) | 62.5 (≈ 260 µM) | 62.5 (≈ 260 µM) | 62.5 (≈ 260 µM) | 125 (≈ 520 µM) | MIC (MRSA and MSSA [1]; [22]): 125 µg/mL (≈ 520 µM); MIC (MRSA and MSSA [1]; [23]): 125 µg/mL (≈ 520 µM); MIC (MRSA and MSSA [1]; [24]): 62.5 µg/mL (≈ 260 µM); MIC (MRSA and MSSA [1]; [25]): 62.5 µg/mL (≈ 260 µM); MIC (MRSA and MSSA [1]; [26]): 62.5 µg/mL (≈ 260 µM); MIC (MRSA and MSSA [1]; [27]): 62.5 µg/mL (≈ 260 µM); MIC (MRSA and MSSA [1]; [28]): 62.5 µg/mL (≈ 260 µM); FIC value ([2]; MRSA COL): 0.25; FIC value ([2]; MRSA Strain No. 5): 0.313; effect of combination use with oxacillin (words) (MRSA and MSSA [3]): potent effects of the combination use; Ampicillin MIC (MRSA; [29]): 63 µg/mL; Cefapirin MIC (MRSA; [29]): 63 µg/mL; effects of the combination use with other β-lactams (MRSA; with penicillin G, cefoxitin, ampicillin, and cefapirin): excellent effects of the combination use |
| CC(C)COC(=O)c1cc(O)c(O)c(O)c1 [isoButyl gallate, isobutyl gallate] | 125 (≈ 553 µM) | 125 (≈ 553 µM) | 125 (≈ 553 µM) | 125 (≈ 553 µM) | 62.5 (≈ 276 µM) | 125 (≈ 553 µM) | 125 (≈ 553 µM) | 125 (≈ 553 µM) | 62.5 (≈ 276 µM) | 125 (≈ 553 µM) | 125 (≈ 553 µM) | 62.5 (≈ 276 µM) | 62.5 (≈ 276 µM) | 125 (≈ 553 µM) | 125 (≈ 553 µM) | 125 (≈ 553 µM) | 125 (≈ 553 µM) | 125 (≈ 553 µM) | 125 (≈ 553 µM) | 125 (≈ 553 µM) | MIC (MRSA and MSSA [1]; [22]): 125 µg/mL (≈ 553 µM); MIC (MRSA and MSSA [1]; [23]): 125 µg/mL (≈ 553 µM); MIC (MRSA and MSSA [1]; [24]): 125 µg/mL (≈ 553 µM); MIC (MRSA and MSSA [1]; [25]): 125 µg/mL (≈ 553 µM); MIC (MRSA and MSSA [1]; [26]): 125 µg/mL (≈ 553 µM); MIC (MRSA and MSSA [1]; [27]): 62.5 µg/mL (≈ 276 µM); MIC (MRSA and MSSA [1]; [28]): 125 µg/mL (≈ 553 µM); effect of the combination use with oxacillin by FIC values ([2]; COL Strain and Strain No. 5): most potent effect of the combination use; FIC value ([2]; MRSA COL): 0.129; FIC value ([2]; MRSA Strain No. 5): 0.266; effect of combination use with oxacillin (words) (MRSA and MSSA [3]): potent effects of the combination use |
